Test results: the supplement of paper PMC5579334

What was measured:
[1] = system: HS-Sch-2; experiment: relative IC50 (inflection point of fitted dose-response curve, CellTiter-Glo viability, 72 h; top asymptote may be below 50% inhibition); higher = less potent
Outline: (§1)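 For this screen, 384-well plates were preprinted with each compound at five concentrations in 10-fold steps and seeded with MPNST cell lines or primary human Schwann cells at 750–1000 cells per well. Incubation lasted 72 h at 37 °C, 5% CO2, and CellTiter-Glo ATP luminescence, scaled between vehicle and positive-control wells and averaged over duplicates where available, served as viability. Logistic fits with four parameters were applied. Relative IC50 (censored at the top concentration) and drug sensitivity score derive from these fits, and percent inhibition is at the top concentration.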

[2] = system: YST-1; experiment: as above
Outline: as §1

[3] = system: HS-PSS; experiment: as above
Outline: as §1

[4] = system: HS-PSS; experiment: relative IC50 (inflection point of fitted dose-response curve, CellTox-Green cytotoxicity, 72 h; top asymptote may be below 50%); higher = less potent
Outline: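 MPNST cell lines and primary human Schwann cells were grown for 72 h at 37 °C in 384-well plates containing five 10-fold compound dilutions. CellTox-Green, added before seeding at a final 1:1000 dilution, gave fluorescence from DNA released by disrupted cells, and signals were scaled to vehicle and positive-control wells. Curves were fitted with a four-parameter logistic model. Drug sensitivity score and relative IC50 come from these fits, with IC50 censored at the top concentration.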

Compound | relative IC50 [1] | relative IC50 [2] | relative IC50 [3] | relative IC50 [4]
Cc1nc(N)sc1-c1ccnc(Nc2ccc(N3CCOCC3)cc2)n1 [CYC-116] | 1580 nM | 510 nM | 1390 nM | > 10000 nM
N#Cc1ccc2[nH]c(O)c(-c3ccc(CN4CCOCC4)cn3)c2c1 [AZD-1080] | 3630 nM | > 10000 nM | 2380 nM | > 10000 nM
CNC(=O)c1ccc2cc([C@@]3(O)CCn4cncc43)ccc2c1 [Orteronel] | > 10000 nM | > 10000 nM | > 10000 nM | > 10000 nM
O=C(c1ccc(F)c(F)c1Nc1ccc(I)cc1F)N1CC(O)([C@@H]2CCCCN2)C1 [Cobimetinib] | 300 nM | > 1000 nM | 159 nM | 
Cc1ncc(-c2ccnc(Nc3ccc(S(C)(=O)=O)cc3)n2)n1C(C)C [AZD-5438] | 1900 nM | 1450 nM | 367 nM | 
Cc1cc(Nc2ncc(Cl)c(Nc3ccccc3S(=O)(=O)C(C)C)n2)c(OC(C)C)cc1C1CCNCC1 [Ceritinib] | 926 nM | 359 nM | 91.3 nM | 
N#CC(c1ccnc(OCc2ccc(CN3CCOCC3)cc2)n1)c1nc2ccccc2s1 (configuration not stated) [Bentamapimod] | 2690 nM | 1500 nM | 1690 nM | 
Cc1cc2c(C(=O)NC[C@H](C)c3ccccc3)c(O)c(O)cc2c(O)c1-c1c(C)cc2c(C(=O)NC[C@H](C)c3ccccc3)c(O)c(O)cc2c1O [Sabutoclax] | 523 nM | 618 nM | 8740 nM | 
COc1cc(NS(C)(=O)=O)ccc1Nc1c2ccccc2nc2ccccc12 [Amsacrine] | 634 nM | 252 nM | 1250 nM | 
O[C@H]1CC[C@H](Nc2ncc3nc(Nc4c(F)cc(F)cc4F)n([C@H]4CCOC4)c3n2)CC1 [Tanzisertib] | > 10000 nM |  | > 10000 nM | > 10000 nM
Cn1ncc(Cl)c1-c1cc(C(=O)N[C@H](CN)Cc2ccc(F)c(F)c2)oc1Cl [Uprosertib] | > 10000 nM |  | > 10000 nM | > 10000 nM
COc1ccc(COc2cc3oc(=O)c4cc(C(C)O)ccc4c3cc2OC)cc1 (configuration not stated) [Palomid-529] | > 10000 nM |  | > 10000 nM | > 10000 nM
CC(=O)c1cnc2ccc(-c3cc(Cl)c(O)c(Cl)c3)nc2c1N[C@H]1CC[C@H](CN(C)C)CC1 [OTSSP167] | 26.1 nM | 10.8 nM | 339 nM | 
C=CC(=O)Nc1cc(Nc2nccc(-c3cn(C)c4ccccc34)n2)c(OC)cc1N(C)CCN(C)C [Osimertinib] | 759 nM | 299 nM | 472 nM | 
COc1cc2ncnc(Oc3cccc(NC(=O)Nc4cc(C(C)(C)C(F)(F)F)on4)c3)c2cc1OC | > 10000 nM |  | > 10000 nM | > 10000 nM
O=C1c2ccccc2-c2n[nH]c3cccc1c23 | 13900 nM | 20100 nM | 13300 nM | 
O=C(NC1CCNCC1)c1n[nH]cc1NC(=O)c1c(Cl)cccc1Cl [AT7519] | 337 nM | 69.3 nM | 277 nM | 
CC(C)NC[C@@H](C(=O)N1CCN(c2ncnc3c2[C@H](C)C[C@H]3O)CC1)c1ccc(Cl)cc1 [Ipatasertib] | 1080 nM | 879 nM | 1160 nM | 
Cc1ccc2nc(CN(CCN(Cc3nc4ccc(C)cc4[nH]3)Cc3nc4ccc(C)cc4[nH]3)Cc3nc4ccc(C)cc4[nH]3)[nH]c2c1 | 8240 nM | 7770 nM | 7700 nM | 
CC(C)Oc1ccc(C(=O)N[C@H](CNC(=O)CN(C)C)Cc2ccc(-c3cn4cccc([C@H](C)O)c4n3)cc2)cc1Cl | 72.3 nM | 75.4 nM | 757 nM | 
CCn1nnc2c(N3CCOCC3)nc(-c3ccc(NC(=O)Nc4ccc(C(=O)N5CCN(C)CC5)cc4)cc3)nc21 [PKI-402] | 95.8 nM | 61.1 nM | 46.7 nM | 
Nc1nc2[nH]cc(CCc3ccc(C(=O)N[C@@H](CCC(=O)O)C(=O)O)cc3)c2c(=O)[nH]1 [Pemetrexed] | 64.1 nM |  | > 10000 nM | > 10000 nM
CNC(=O)c1ccccc1Nc1cc(Nc2ccc(N3CCOCC3)cc2OC)ncc1C(F)(F)F [VS-4718] | 2610 nM | 724 nM | 3690 nM | 
CC(=O)NCC(=O)N1[C@@H]2CC[C@H]1c1ccc(Nc3ncc(C(F)(F)F)c(NC4CCC4)n3)cc12 | 946 nM | 749 nM | 960 nM | 

Compound | relative IC50 [1] | relative IC50 [2] | relative IC50 [3] | relative IC50 [4]
CC(C)CC(=O)Nc1n[nH]c2c1CN(C(=O)C1CCN(C)CC1)C2(C)C | 1290 nM | 859 nM | 604 nM | 
CNC(=O)c1cc(COc2nnc(Nc3ccc(Cl)cc3)c3ccoc23)ccn1 [Telatinib] | > 10000 nM |  | > 10000 nM | > 10000 nM
CN(c1ncccc1CNc1nc(Nc2ccc3c(c2)CC(=O)N3)ncc1C(F)(F)F)S(C)(=O)=O | 3410 nM | 2010 nM | 3340 nM | 
COc1cccc(OCCCN)c1-c1cc(Nc2cnc(C#N)cn2)n[nH]1 [Prexasertib] | 26 nM | 54.7 nM | 1770 nM | 
Cc1cc(C)c(/C=C2\C(=O)Nc3ccccc32)[nH]1 [Semaxanib] | > 10000 nM |  | > 10000 nM | 2280 nM
CCOc1cc2ncc(C#N)c(Nc3ccc(F)c(Cl)c3)c2cc1NC(=O)/C=C/CN(C)C [Pelitinib] | 195 nM | 323 nM | 79.5 nM | 
CNC(=O)c1nn(C)c2c1C(C)(C)Cc1cnc(Nc3ccc(N4CCN(C)CC4)cc3)nc1-2 [Milciclib] | 1240 nM | 351 nM | 779 nM | 
O=C(O)c1ccc(Nc2ncc3c(n2)-c2ccc(Cl)cc2C(c2c(F)cccc2F)=NC3)cc1 [MLN-8054] | 1110 nM | 625 nM | 1260 nM | 
O=C(CCCCCCNC(=O)c1cnc(N(c2ccccc2)c2ccccc2)nc1)NO [Rocilinostat] | 1930 nM | 1240 nM | 2760 nM | 
CN[C@@H](C)C(=O)N[C@H](C(=O)N1CCC[C@H]1c1nc(C(=O)c2ccc(F)cc2)cs1)C1CCCCC1 [LCL161] | 7520 nM | 4260 nM | 3860 nM | 
CCN(CC)CCN(Cc1ccc(-c2ccc(C(F)(F)F)cc2)cc1)C(=O)Cn1c(SCc2ccc(F)cc2)nc(=O)c2c1CCC2 [Darapladib] | 192 nM |  | 224 nM | 250 nM
CO[C@H]1C(=O)[C@]2(C)[C@@H](OC)C[C@H]3OC[C@@]3(OC(C)=O)[C@H]2[C@H](OC(=O)c2ccccc2)[C@]2(O)C[C@H](OC(=O)[C@H](O)[C@@H](NC(=O)OC(C)(C)C)c3ccccc3)C(C)=C1C2(C)C [Cabazitaxel] | 0.94 nM | 0.74 nM | 418 nM | 
CC1(C)CCC(CN2CCN(c3ccc(C(=O)NS(=O)(=O)c4ccc(NCC5CCOCC5)c([N+](=O)[O-])c4)c(Oc4cnc5[nH]ccc5c4)c3)CC2)=C(c2ccc(Cl)cc2)C1 [Venetoclax] | > 1000 nM |  | > 1000 nM | > 1000 nM
CCc1cc2c(cc1N1CCC(N3CCOCC3)CC1)C(C)(C)c1[nH]c3cc(C#N)ccc3c1C2=O [Alectinib] | > 1000 nM |  | 34.8 nM | > 1000 nM
C=CC(=O)N1CCC(Oc2cc3c(Nc4ccc(Cl)c(Cl)c4F)ncnc3cc2OC)CC1 [Poziotinib] | > 1000 nM |  | > 1000 nM | > 1000 nM
COCC(=O)NC/C=C/c1ccc2ncnc(Nc3ccc(Oc4ccc(C)nc4)c(C)c3)c2c1 | 1250 nM |  | 1540 nM | > 10000 nM
CON(C)C(=O)N1N=C(c2cc(F)ccc2F)S[C@@]1(CCCN)c1ccccc1 [Filanesib] | 2.19 nM | 2.28 nM | 4.62 nM | 
Cc1cc([C@@H](C)Nc2ccccc2C(=O)O)c2nc(N3CCOCC3)cc(=O)n2c1 [AZD-6482] | > 2500 nM |  | > 2500 nM | > 2500 nM
c1cn2cc(-c3ccc4cn[nH]c4c3)nc(Nc3ccc(N4CCOCC4)cc3)c2n1 [Entospletinib] | > 5000 nM |  | > 5000 nM | > 5000 nM
O=C(/C=C\n1cnc(-c2cc(C(F)(F)F)cc(C(F)(F)F)c2)n1)NNc1ccccn1 [Verdinexor] | 137 nM | 144 nM | 137 nM | 
Cc1cc(-c2nc(-c3ccc(OC(F)(F)F)cc3)no2)nn1Cc1ccnc(N2CCN(C3CC3)CC2)c1 [BAY 87-2243] | 0.63 nM |  | 0.66 nM | > 1000 nM
Cc1c(NC(=O)OC[C@@H]2COCCN2)cn2ncnc(Nc3ccc4c(cnn4Cc4cccc(F)c4)c3)c12 | 1990 nM | 1000 nM | 2150 nM | 
O=C(Nc1cccc(NC(=O)c2cccc(O)c2O)c1)c1cccc(O)c1O [MST-312] | 984 nM | 3120 nM | 3370 nM | 
NC(=O)c1cccc2cn(-c3ccc(C4CCCNC4)cc3)nc12 (configuration not stated) [Niraparib] | 661 nM | 461 nM | 1760 nM | 
